Data on 16 compounds can be found in PMC10797614, “MYC-Targeting Inhibitors Generated from a Stereodiversified Bicyclic Peptide Library” (Journal of the American Chemical Society, 2024).

SMILES strings stand for the structures.

One data set can be described thus: tandem ring-opening/ring-closing metathesis (ROM-RCM) of side-chain norbornene with two Glu allyl esters to bicyclic peptide; Hoveyda-Grubbs 2nd gen (M720), two portions (library procedure). The conditions noted are these: the molecule shown is the open-chain precursor; 28-membered ring; 1,2-dichloroethane; resin; 70.0 °C.
`C=CCOC(=O)CC[C@H](NC(=O)[C@@H]1CCCN1C(=O)[C@H](CC(C)C)NC(=O)[C@H](C)NC(=O)[C@H](CCCCNC(=O)[C@H]1C[C@H]2C=C[C@@H]1C2)NC(=O)[C@@H](NC(=O)[C@@H](NC(=O)[C@H](Cc1ccccc1)NC(=O)[C@H](CCC(=O)OCC=C)NC(=O)OCC1c2ccccc2-c2ccccc21)[C@@H](C)CC)C(C)C)C(N)=O`: the ring closure, conversion by HPLC (% (semiquantitative, mass spectrometry)) worked out at 2.

Consider `C=CCOC(=O)CC[C@H](NC(=O)[C@H](CC(C)C)NC(=O)[C@H](C)NC(=O)[C@@H]1CCCN1C(=O)[C@H](CCCCNC(=O)[C@@H]1C[C@H]2C=C[C@@H]1C2)NC(=O)[C@@H](NC(=O)[C@@H](NC(=O)[C@H](Cc1ccccc1)NC(=O)[C@H](CCC(=O)OCC=C)NC(=O)OCC1c2ccccc2-c2ccccc21)[C@@H](C)CC)C(C)C)C(N)=O`, for which the ring closure, conversion by HPLC (% (semiquantitative, mass spectrometry)) amounted to 14. The same measure, in the same setting: the value for `C=CCOC(=O)CC[C@H](NC(=O)[C@H](CC(C)C)NC(=O)[C@H](C)NC(=O)[C@H](CCCCNC(=O)[C@H]1C[C@H]2C=C[C@@H]1C2)NC(=O)[C@@H](NC(=O)[C@@H](NC(=O)[C@H](Cc1ccccc1)NC(=O)[C@H](CCC(=O)OCC=C)NC(=O)OCC1c2ccccc2-c2ccccc21)[C@@H](C)CC)C(C)C)C(N)=O` was 65. Same read-out and setting: the value for `C=CCOC(=O)CC[C@H](NC(=O)[C@@H]1CCCN1C(=O)[C@H](CC(C)C)NC(=O)[C@H](C)NC(=O)[C@H](CCCCNC(=O)[C@@H]1C[C@H]2C=C[C@@H]1C2)NC(=O)[C@@H](NC(=O)[C@@H](NC(=O)[C@H](Cc1ccccc1)NC(=O)[C@H](CCC(=O)OCC=C)NC(=O)OCC1c2ccccc2-c2ccccc21)[C@@H](C)CC)C(C)C)C(N)=O` was 2; that for `C=CCOC(=O)CC[C@H](NC(=O)[C@H](CC(C)C)NC(=O)[C@@H]1CCCN1C(=O)[C@H](C)NC(=O)[C@H](CCCCNC(=O)[C@@H]1C[C@H]2C=C[C@@H]1C2)NC(=O)[C@@H](NC(=O)[C@@H](NC(=O)[C@H](Cc1ccccc1)NC(=O)[C@H](CCC(=O)OCC=C)NC(=O)OCC1c2ccccc2-c2ccccc21)[C@@H](C)CC)C(C)C)C(N)=O` was 10. On the same count and under the same terms, in the case of `C=CCOC(=O)CC[C@H](NC(=O)[C@H](CC(C)C)NC(=O)[C@H](C)NC(=O)[C@@H]1CCCN1C(=O)[C@H](CCCCNC(=O)[C@H]1C[C@H]2C=C[C@@H]1C2)NC(=O)[C@@H](NC(=O)[C@@H](NC(=O)[C@H](Cc1ccccc1)NC(=O)[C@H](CCC(=O)OCC=C)NC(=O)OCC1c2ccccc2-c2ccccc21)[C@@H](C)CC)C(C)C)C(N)=O` it was 47; in that of `C=CCOC(=O)CC[C@H](NC(=O)[C@H](CC(C)C)NC(=O)[C@@H]1CCCN1C(=O)[C@H](C)NC(=O)[C@H](CCCCNC(=O)[C@H]1C[C@H]2C=C[C@@H]1C2)NC(=O)[C@@H](NC(=O)[C@@H](NC(=O)[C@H](Cc1ccccc1)NC(=O)[C@H](CCC(=O)OCC=C)NC(=O)OCC1c2ccccc2-c2ccccc21)[C@@H](C)CC)C(C)C)C(N)=O`, 45. The compound `C=CCOC(=O)CC[C@H](NC(=O)[C@H](CC(C)C)NC(=O)[C@H](C)NC(=O)[C@H](CCCCNC(=O)[C@@H]1C[C@H]2C=C[C@@H]1C2)NC(=O)[C@@H](NC(=O)[C@@H](NC(=O)[C@H](Cc1ccccc1)NC(=O)[C@H](CCC(=O)OCC=C)NC(=O)OCC1c2ccccc2-c2ccccc21)[C@@H](C)CC)C(C)C)C(N)=O` yielded a ring closure, conversion by HPLC (% (semiquantitative, mass spectrometry)) of 18.

Still in this data set, the particulars now being: the molecule shown is the open-chain precursor; 31-membered ring; 1,2-dichloroethane; resin; 70.0 °C.
Consider `C=CCOC(=O)CC[C@H](NC(=O)[C@H](CC(C)C)NC(=O)[C@H](C)NC(=O)[C@H](CCCCNC(=O)[C@@H]1C[C@H]2C=C[C@@H]1C2)NC(=O)[C@@H](NC(=O)[C@@H](NC(=O)[C@H](Cc1ccccc1)NC(=O)[C@@H]1CCCN1C(=O)[C@H](CCC(=O)OCC=C)NC(=O)OCC1c2ccccc2-c2ccccc21)[C@@H](C)CC)C(C)C)C(N)=O`, for which the ring closure, conversion by HPLC (% (semiquantitative, mass spectrometry)) came out at 22.

Take `C=CCOC(=O)CC[C@H](NC(=O)[C@H](CC(C)C)NC(=O)[C@H](C)NC(=O)[C@H](CCCCNC(=O)[C@H]1C[C@H]2C=C[C@@H]1C2)NC(=O)[C@@H]1CCCN1C(=O)[C@@H](NC(=O)[C@@H](NC(=O)[C@H](Cc1ccccc1)NC(=O)[C@H](CCC(=O)OCC=C)NC(=O)OCC1c2ccccc2-c2ccccc21)[C@@H](C)CC)C(C)C)C(N)=O`: the ring closure, conversion by HPLC (% (semiquantitative, mass spectrometry)) came out at 34. On the same count and under the same terms, the value for `C=CCOC(=O)CC[C@H](NC(=O)[C@H](CC(C)C)NC(=O)[C@H](C)NC(=O)[C@H](CCCCNC(=O)[C@@H]1C[C@H]2C=C[C@@H]1C2)NC(=O)[C@@H](NC(=O)[C@@H](NC(=O)[C@@H]1CCCN1C(=O)[C@H](Cc1ccccc1)NC(=O)[C@H](CCC(=O)OCC=C)NC(=O)OCC1c2ccccc2-c2ccccc21)[C@@H](C)CC)C(C)C)C(N)=O` was 74; that for `C=CCOC(=O)CC[C@H](NC(=O)[C@H](CC(C)C)NC(=O)[C@H](C)NC(=O)[C@H](CCCCNC(=O)[C@H]1C[C@H]2C=C[C@@H]1C2)NC(=O)[C@@H](NC(=O)[C@@H](NC(=O)[C@@H]1CCCN1C(=O)[C@H](Cc1ccccc1)NC(=O)[C@H](CCC(=O)OCC=C)NC(=O)OCC1c2ccccc2-c2ccccc21)[C@@H](C)CC)C(C)C)C(N)=O` was 79. With `C=CCOC(=O)CC[C@H](NC(=O)[C@H](CC(C)C)NC(=O)[C@H](C)NC(=O)[C@H](CCCCNC(=O)[C@H]1C[C@H]2C=C[C@@H]1C2)NC(=O)[C@@H](NC(=O)[C@@H]1CCCN1C(=O)[C@@H](NC(=O)[C@H](Cc1ccccc1)NC(=O)[C@H](CCC(=O)OCC=C)NC(=O)OCC1c2ccccc2-c2ccccc21)[C@@H](C)CC)C(C)C)C(N)=O`, the ring closure, conversion by HPLC (% (semiquantitative, mass spectrometry)) came out at 80. The same measure, in the same setting: the value for `C=CCOC(=O)CC[C@H](NC(=O)[C@H](CC(C)C)NC(=O)[C@H](C)NC(=O)[C@H](CCCCNC(=O)[C@H]1C[C@H]2C=C[C@@H]1C2)NC(=O)[C@@H](NC(=O)[C@@H](NC(=O)[C@H](Cc1ccccc1)NC(=O)[C@@H]1CCCN1C(=O)[C@H](CCC(=O)OCC=C)NC(=O)OCC1c2ccccc2-c2ccccc21)[C@@H](C)CC)C(C)C)C(N)=O` was 55; that for `C=CCOC(=O)CC[C@H](NC(=O)[C@H](CC(C)C)NC(=O)[C@H](C)NC(=O)[C@H](CCCCNC(=O)[C@@H]1C[C@H]2C=C[C@@H]1C2)NC(=O)[C@@H](NC(=O)[C@@H]1CCCN1C(=O)[C@@H](NC(=O)[C@H](Cc1ccccc1)NC(=O)[C@H](CCC(=O)OCC=C)NC(=O)OCC1c2ccccc2-c2ccccc21)[C@@H](C)CC)C(C)C)C(N)=O` was 14.

The compound `C=CCOC(=O)CC[C@H](NC(=O)[C@H](CC(C)C)NC(=O)[C@H](C)NC(=O)[C@H](CCCCNC(=O)[C@@H]1C[C@H]2C=C[C@@H]1C2)NC(=O)[C@@H]1CCCN1C(=O)[C@@H](NC(=O)[C@@H](NC(=O)[C@H](Cc1ccccc1)NC(=O)[C@H](CCC(=O)OCC=C)NC(=O)OCC1c2ccccc2-c2ccccc21)[C@@H](C)CC)C(C)C)C(N)=O` showed a ring closure, conversion by HPLC (% (semiquantitative, mass spectrometry)) of 25.
